Laboratory results from patent US11440923B2, “Substituted macrocyclic indole derivatives” (Bayer Aktiengesellschaft, priority 2017, dated 2022).
Structures can show the parent of a compound that is named as a salt.

Key:
SUDHL5 cells = assay: Induction of cytotoxicity in SUDHL5 cells (Assay 6); type: cell-based; details: 5 h, CellTiter-Glo; read-out: Cytotox SUDHL5 IC50 (median)
Method: (§1) Assay 6 Induction of Cytotoxicity Upon Treatment of Cells with Selected Compounds
(§2) In principle, compounds that induce apoptosis will concomitantly induce cell cytotoxicity. Therefore, cytotoxicity assays were run in parallel in SUDHL5 and SUDHL10 cells.
(§3) As a control, medium without cells was also added to the plate. Cells were incubated in a humidified incubator at 37° C. overnight. […] Rim wells were excluded. The cells were incubated for 5 h hours in a humidified incubator at 37° C. After this incubation, 30 μL of CellTiter-Glo® Luminescent Cell Viability reagent (Promega, G7573) was added to each well using the Multidrop Combi Reagent Dispenser, followed by 15 min incubation on a shaker at room temperature. Finally, luminescence was read at 0.1 ms, with a gain of 3000 using the PHERAstar FS microplate reader (BMG Labtech).

SUDHL10 cells = assay: Induction of cytotoxicity in SUDHL10 cells (Assay 6); type: cell-based; details: 5 h, CellTiter-Glo; read-out: Cytotox SUDHL10 IC50 (median)
Method: as §1, §2, §3

Row | SMILES | IC50 (SUDHL5 cells) | IC50 (SUDHL10 cells)
1 | CCc1c2c(nn1C)C(CCN1CCOCC1)OCCCCn1c(C(=O)O)c(CCCOc3cccc4cc(F)ccc34)c3ccc(Cl)c-2c31 (single isomer, unassigned; enantiomer 2) [Example 24, (−)-4-chloro-3-ethyl-7-{3-[(6-fluoronaphthalen-1-yl)oxy]propyl}-2-methyl-15-[2-(morpholin-4-yl)ethyl]-2,10,11,12,13,15-hexahydropyrazolo[4′,3′:9,10][1,6]oxazacycloundecino[8,7,6-hi]indole-8-carboxylic acid—N-ethylethanamine (Enantiomer 2)] | 1700 nM | 6600 nM
2 | CCc1c2c(nn1C)[C@@H](CCN1CCOCC1)OCCCCn1c(C(=O)O)c(CCCOc3cccc4cc(F)ccc34)c3ccc(Cl)c-2c31 [Example 48, (15R)-4-chloro-3-ethyl-7-{3-[(6-fluoronaphthalen-1-yl)oxy]propyl}-2-methyl-15-[2-(morpholin-4-yl)ethyl]-2,10,11,12,13,15-hexahydropyrazolo[4′,3′:9,10][1,6]oxazacycloundecino[8,7,6-hi]indole-8-carboxylic Acid—N-ethylethanamine Salt] | 210 nM | 200 nM
3 | CCc1c2c(nn1C)C(CCN1CCOCC1)OCCCCn1c(C(=O)O)c(CCCOc3cccc4cc(F)ccc34)c3ccc(Cl)c-2c31 (single isomer, unassigned; enantiomer 1) [Example 23, (+)-4-chloro-3-ethyl-7-{3-[(6-fluoronaphthalen-1-yl)oxy]propyl}-2-methyl-15-[2-(morpholin-4-yl)ethyl]-2,10,11,12,13,15-hexahydropyrazolo[4′,3′:9,10][1,6]oxazacycloundecino[8,7,6-hi]indole-8-carboxylic Acid—N-ethylethanamine (Enantiomer 1)] | 7.8 nM | 9.7 nM
